Regarding `CS(=O)(=O)c1ccc(C2=C(c3ccc(F)cc3)CC(C(F)(F)F)(C(F)(F)F)C2)cc1`, the melting point (as a rule, the temperature of the solid-liquid transition) is 138 °C. The figure for `CNC(=O)C1=C(c2ccccc2)OC(c2ccccc2)CC1=O` (stereo not drawn) is 212 to 214 °C; for `CC(C)(C)OC(=O)N(CCc1ccc(C(F)(F)F)cc1)C1CCN(C[C@@]2(C)Cn3cc([N+](=O)[O-])nc3O2)CC1` it is 207 to 209 °C; for `COc1cc(C=CC=C2SC(=O)NC2=O)ccc1OCc1csc(-c2ccccc2)n1` it is 248 to 249 °C. The figure for `COc1ccc(C2Sc3ccccc3NC(=O)C2OC(C)=O)cc1` (stereo not drawn) is 193 to 195 °C; for `CC(=Cc1ccccc1)CN1CCc2nc(N)sc2CC1` it is 112 to 115 °C. Then `Cc1cc(-n2ccnc2)c2cccc(OCc3c(Cl)ccc(-n4cccc4CNC(=O)C=Cc4ccc(C(=O)O)cc4)c3Cl)c2n1`, with 166 to 170 °C; and `CCN1C(=O)CCc2cc(Sc3cccc([C@@]4(O)CCO[C@@H](C)C4)c3)ccc21`, with 148 to 149 °C; and `COC(=O)c1cccc(-c2cc(-c3ccccc3)on2)c1`, with 99 to 100 °C. In turn, `COc1cc2c(cc1O)CCCC(C(=O)N1CCN(C(=O)c3cc(OC)c(OC)c(OC)c3)CC1)=C2` came in with a melting point of 198 to 199 °C. Turning to `COc1ccc(NC(=O)Nc2c(Cl)cccc2Cl)cc1OC1CCCC1`, the melting point fell in the range of 203 to 204 °C. In turn, `O=C(O)c1c[nH]c(Sc2cc(Cl)c(Cl)cc2Cl)c1` gave a melting point of 210 to 215 °C. For `CCOc1cc(=O)[nH]c2ccccc12`, the melting point is 223 to 226 °C. Then `CC(=O)OC1CSC(Oc2cnc(Cl)c(F)c2)C(OC(C)=O)C1OC(C)=O` (stereo not drawn), with 158 to 162 °C. The figure for `Cc1[nH]c(C(=O)O)c(C)c1C=O` is 233 to 237 °C; for `CC(C)(C)Sc1c(C#N)nn(-c2c(Cl)cc(C(F)(F)F)cc2Cl)c1N` it is 196 to 198 °C; for `Cc1[nH]n(Cc2ccc(C(=O)O)cc2)c2nc(-c3ccncc3)nc(=O)c1-2` it is greater than 300 °C. The molecule `OCC1OC(n2cnc3c(NC4CCC(O)C4)ncnc32)C(O)C1O` (stereo not drawn) registered a melting point of 208 to 210 °C. The figure for `CN(Cc1cc(C(F)(F)F)cc(C(F)(F)F)c1)C(=O)c1c(-c2ccc(F)cc2)c2c(c(=O)n1C)CNCC2` is 178 to 180 °C; for `Nc1nc2cc(OCC(=O)N3CCOCC3)ccc2c2c1nc1n2CCOC1` it is 204 to 206 °C. Consider `C=C(C)OC(=O)N1C(=O)C(C)N(C(=O)OC(=C)C)c2ccncc21` (racemic), for which the melting point is 96 to 97 °C. Then `Cc1nc(-c2ccc([N+](=O)[O-])c(C)c2)c[nH]1`, with 158 to 160 °C. Then `CCCCCCCCCCOc1ccc(-c2nc(-c3c(Cl)cccc3Cl)nn2C)cc1`, with 60 to 64 °C; and `Fc1cc(Cl)ccc1-n1nc2c(c1Cl)CCC2`, with 102 to 104 °C; and `Cc1c(C(=O)c2cccnc2)sc2ccc(C(=O)O)cc12`, with 264 to 265 °C.

Turning to `COC1CCC(O)C(COS(=O)(=O)c2ccc(C)cc2)O1` (stereo not drawn), the melting point fell in the range of 100 to 102 °C. The figure for `COC(=O)C1=C(C)NC(C)=C(C(=O)O)C1c1ccccc1` (single isomer, unassigned; (-)) is 158 to 159 °C; for `CCOC(=O)c1ncn2c1CN(C)C(=O)c1cnccc1-2` it is 205 to 206 °C. Consider `COc1ccc2c(c1OC)C(C)NC(=O)N2` (stereo not drawn), for which the melting point was in the range of 210 to 212 °C. Then `CC(=O)OC1(C(C)=O)CCC2C3C(OS(C)(=O)=O)C(Cl)C4=CC(=O)OCC4(C)C3CCC21C` (stereo not drawn), with 222 to 226 °C; and `O=C1CC(c2ccc(O)cc2O)Oc2cc(O)cc(O)c21` (stereo not drawn), with 258 to 259 °C; and `C[C@@H](O)CNC(=O)N1CC(Oc2ccc(C(C)(C)C)cc2)C1`, with 104 to 105 °C. `C=C(c1ccc(C(=O)OC)cc1)c1ccc2c(c1)C(C)(C)CCC2(C)C` yielded a melting point of 117 to 118 °C. As to `CS(=O)(=O)c1ccc(-c2cnn(-c3ccccc3C=O)c(=O)c2-c2ccc(F)cc2)cc1`, the melting point fell in the range of 234 to 236 °C. The figure for `CC(CO)(CO)OCc1ccccc1F` is 74.5 to 75 °C; for `O=Cc1c[nH]c(-c2ccccc2)c1` it is 136 to 137 °C; for `CCCCCCC(=O)c1c(O)oc(=O)c(C(=O)CCCCCC)c1O` it is 88 to 90 °C.

In turn, `COCn1cc(C2=C(C#N)C(c3cccc4nonc34)c3c[nH]nc3N2)c2ccccc21` (stereo not drawn) had a melting point of 200 °C. With `CSCC12CCC(O)C=C1CCC1C2CCC2(C)C(O)CCC12` (stereo not drawn), the melting point was 85 to 87 °C. Turning to `O=C(O)COc1c(Br)cc(C(=O)c2c(Cc3ccccc3)sc3ccccc23)cc1Br`, the melting point lay within 162 to 163 °C. Then `Cc1ccc2cccc(OCc3c(Cl)ccc(N(C)C(=O)CNC(=O)CN4CCN(c5ccc([N+](=O)[O-])cc5)CC4)c3Cl)c2n1`, with 178 to 181 °C.

For `CN1CCN(c2cccc3ccc(Nc4ncccc4NC(=O)c4ccccc4)cc23)CC1`, the melting point was in the range of 205 to 207 °C. The figure for `COc1ccc([C@H]2CCc3ccccc3[C@@H]2C#N)cc1` (racemic) is 126 to 131 °C; for `N#Cc1nn(-c2c(Cl)cc(C(F)(F)F)cc2Cl)c(N)c1-c1cccnc1` it is 265 to 267 °C; for `CC(C)Cn1c(CNC(=O)OC(C)(C)C)c(-c2ccccc2)c2cc(/C=C/C(N)=O)ccc2c1=O` it is 146 to 147 °C. `O=C(NC1=NCCCC1)Nc1ccc(Cl)cc1` showed a melting point of 200 to 203 °C. The figure for `CCOC(=O)c1ccccc1NCCOc1cccc2ccccc12` is 81 to 83 °C. The figure for `CC1(O)CN(c2c(F)cc3c(=O)c(C(=O)O)cn(C4CC4)c3c2F)C1` is 290 to 294 °C; for `Cn1c(CNCC(C)(C)C)cc2cc(NC(=O)c3ccc(C#CC4(O)CCC4)cc3)ccc21` it is 160 to 161 °C; for `Cc1nc[nH]c1CSCCNC(=N)N[N+](=O)[O-]` it is 146 to 147 °C.

Molecule `O=C(Nc1ccc(Cl)c(Cl)c1)NS(=O)(=O)c1ccc2c(c1)C(=O)CO2` displayed a melting point of 209 to 211 °C. For `NC(=O)c1c(OCc2ccccc2)ccc2ccccc12`, the melting point is 153 to 154 °C. The figure for `CCc1cccc2c(NC(=O)C[C@H]3O[C@H](c4cccc(OC)c4OC)c4cc(Cl)ccc4N(CC(C)(C)CO)C3=O)c(C(=O)O)oc12` is 188 to 189 °C. The figure for `N#Cc1cccc(NC(=O)Nc2ccc(-n3nc(C(F)(F)F)cc3C(F)(F)F)cc2)c1` is 204 to 205 °C. Then `COc1ccc(N2CCN(c3ccccn3)CC2)cc1`, with 126 °C; and `c1ccc(Cn2ccnc2COc2nn3c(-c4ccon4)nnc3c3ccccc23)cc1`, with 198 °C; and `ON=C1CCC(C2CCCC2)=C1c1ccc(F)cc1`, with 204 to 205 °C. `O=Cc1c2ccccc2c(Br)c2ccccc12` gave a melting point of 215 to 216 °C. The figure for `O=C1CC2(C(=O)N1)C(=O)N1CCOc3cc(Cl)cc2c31` (stereo not drawn) is 260 to 262 °C; for `CCOC(C)OC(C)(C)CCCC(C)C1CCC2C3CC=C4CC(O)CC(O)C4(C)C3CCC12C` (stereo not drawn) it is 128 to 130 °C. As for `CC(=O)N1CCC(Oc2ccc(N3CCOCC3)cc2)CC1`, the melting point is 208 to 209 °C.

As for `CC1(C)CC(O)C(C)(C)c2cc(Cn3cccn3)c(/C=C/c3ccc(C(=O)O)cc3)cc21` (stereo not drawn), the melting point amounted to 242 °C.

The molecule `NC(=O)c1sc(Nc2ccc(Cl)cc2)c2c1CCc1cnoc1-2` gave a melting point of 224 to 225 °C. Then `O=C(CC1(c2ccccc2)C(=O)Oc2ccc(Cl)cc21)N1CCN(c2ccc(C(F)(F)F)cn2)CC1` (stereo not drawn), with 228 °C. The molecule `COC(=O)CCCc1ccc(S(=O)(=O)Nc2ccccc2)cn1` showed a melting point of 79 to 80 °C. The molecule `CC(C)n1cc(C2CCC(=O)CC2)c2cc(C#N)ccc21` came in with a melting point of 106 to 107 °C.

With `CCC(=O)Nc1ccc(OC)cc1OC`, the melting point was 63 to 65 °C.

As for `CC(N)=CC(=O)CS(=O)(=O)N(C)Cc1ccccc1`, the melting point is 115 to 118 °C. Then `O=c1[nH]c(=S)[nH]cc1-c1ccccc1`, with 269 to 271 °C. `CCCCCCCCCCCCCCCCCNC(=O)O[C@@H]1CCCO[C@H]1COCc1ccccc1` (relative stereo) gave a melting point of 61 to 63 °C.

`CCC(=O)Nc1cccc(C)c1C(=O)O` registered a melting point of 152 °C. Regarding `N#Cc1ccc(N(Cc2ccc(OS(N)(=O)=O)cc2)n2cnnc2)cc1-c1cc2ccccc2o1`, the melting point lay in the range of 202 to 203 °C. Then `N#CSc1ccc(N)c(F)c1`, with 36 to 38 °C. The figure for `CCOC(=O)c1c(N)sc2c1CCN(CCCc1ccccc1)C2` is 108 to 110 °C; for `CCCn1c(CCOC)nc2c(N)nc3cc(OC4CCN(S(C)(=O)=O)CC4)ccc3c21` it is 224 to 226 °C.

With `COc1ccc(-c2nc(CN3CCCCC3)nc3cc(OC)c(OC)cc23)cc1OC`, the melting point was in the range of 130 to 132 °C. In turn, `CCN1C(=O)CSC1=NOC(=O)N(C)SC(Cl)(Cl)Cl` registered a melting point of 126 to 128 °C.

In the case of `O=C1N=C(N2CCOCC2)SC1c1cccc(-c2ccc(O)c(-c3ccccc3)c2)n1` (stereo not drawn), the melting point is 292 to 295 °C. For `CC(C)(CN)c1ccc2nc(-c3ccccc3)[nH]c2c1`, the melting point is 185 to 187 °C. Take `COCc1c(C(=O)OC(C)C)ncc2[nH]c3cccc(Oc4ccc(Cl)cc4)c3c12`: the melting point lay in the range of 119 to 120 °C.

`CCCC(=O)c1cnc2c(C(C)=O)cccc2c1Nc1ccc(O)cc1C` had a melting point of 183 to 185 °C. `CC(=N)Nc1cc(C)ccc1N1CCOCC1` yielded a melting point of 121 °C. Then `NC(=O)C1CCc2ccc(C(=O)c3ccccc3)cc21` (stereo not drawn), with 195 to 197 °C. Then `Cc1oc(-c2ccccc2)nc1CCc1noc(COc2cccc(CC(=O)O)c2)n1`, with 93 to 94 °C; and `O=c1[nH]c2cc(F)c(Cl)c(F)c2[nH]c1=O`, with greater than 250 °C; and `Cc1cccc(N2CCN(c3ccc(OCc4ccccc4)nn3)CC2)c1`, with 159 °C. The figure for `Cn1cnc2c(=O)n(-c3ccccc3)c3ncccc3c21` is 262 °C; for `CNc1nc2ccc(Cl)cc2c2nc(-c3ccco3)nn12` it is 166 to 168 °C.
